Test systems include MOLT-4 leukemia; IGROV1 ovarian; NCI-H226 lung; SK-MEL-28 melanoma; UACC-62 melanoma; COLO 205 colon; NCI-H460 lung; RPMI-8226 leukemia; HOP-92 NSCLC; SN12C renal; OVCAR-4 ovarian; A498 renal; SNB-19 CNS; TK-10 renal; CCRF-CEM leukemia; SNB-75 CNS; SF-268 CNS; NCI/ADR-RES ovarian.
What all share (assay): NCI tumour cell line growth inhibition, 48 h

The structures appear in SMILES notation.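 Cells were grown in 96-well plates and exposed to each compound for 48 hours at five concentrations; endpoints were interpolated linearly between bracketing concentrations, or set to the highest concentration if not reached. At the TGI there is no net growth.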

For the compound `Nc1ccc(N=Nc2ccc(-c3ccc(N=Nc4c(S(=O)(=O)O)cc5cc(S(=O)(=O)O)c(N=Nc6ccc([N+](=O)[O-])cc6)c(N)c5c4O)cc3)cc2)c2cc(S(=O)(=O)O)ccc12`, the TGI in the experiment with MOLT-4 leukemia, in the experiment on IGROV1 ovarian, in the experiment with NCI-H226 lung, with SK-MEL-28 melanoma, with UACC-62 melanoma and in the experiment on COLO 205 colon was greater than 100 µM in each case. Moreover, the TGI in the experiment on NCI-H460 lung, in the experiment on RPMI-8226 leukemia, in the experiment with HOP-92 NSCLC, in the experiment on SN12C renal, in the experiment on OVCAR-4 ovarian and with A498 renal was greater than 100 µM in each case. For the same compound, the TGI in the experiment with SNB-19 CNS, with TK-10 renal, in the experiment with CCRF-CEM leukemia, in the experiment with SNB-75 CNS and with SF-268 CNS was greater than 100 µM throughout.

Turning to `O=C(O)CSc1nc2ccccc2[nH]1`, the TGI in the experiment with MOLT-4 leukemia, with IGROV1 ovarian, in the experiment on SK-MEL-28 melanoma, in the experiment on UACC-62 melanoma, with NCI-H460 lung and with NCI/ADR-RES ovarian was greater than 100 µM throughout. The TGI in the experiment with HOP-92 NSCLC, in the experiment with SN12C renal, in the experiment with OVCAR-4 ovarian, in the experiment with A498 renal, in the experiment on SNB-19 CNS and with TK-10 renal was greater than 100 µM in each case. The TGI in the experiment with SNB-75 CNS and in the experiment on SF-268 CNS was greater than 100 µM in each case.

In the case of `COc1ccc(-c2nnc3c4ccccc4sn23)cc1`, the TGI in the experiment with MOLT-4 leukemia, in the experiment on IGROV1 ovarian, in the experiment on SK-MEL-28 melanoma, in the experiment on UACC-62 melanoma, with COLO 205 colon and in the experiment with NCI-H460 lung was greater than 100 µM throughout. In addition, the TGI in the experiment on RPMI-8226 leukemia, with HOP-92 NSCLC, in the experiment on SN12C renal, in the experiment on OVCAR-4 ovarian, in the experiment with SNB-19 CNS and in the experiment with TK-10 renal was greater than 100 µM throughout. For the same compound, the TGI in the experiment with CCRF-CEM leukemia is 33.7 µM; in the experiment on SNB-75 CNS, 87.3 µM; with SF-268 CNS, greater than 100 µM.

As to `[N-]=[N+]=NCC(=O)c1c[nH]c(=O)[nH]c1=O`, the TGI in the experiment on IGROV1 ovarian, in the experiment with NCI-H226 lung, in the experiment on SK-MEL-28 melanoma, in the experiment with UACC-62 melanoma, with COLO 205 colon and in the experiment on NCI-H460 lung was greater than 100 µM each time. Besides, the TGI in the experiment with NCI/ADR-RES ovarian, in the experiment on RPMI-8226 leukemia, in the experiment on HOP-92 NSCLC, in the experiment on SN12C renal, in the experiment with OVCAR-4 ovarian and in the experiment with A498 renal was greater than 100 µM in each case. Besides, the TGI in the experiment with SNB-19 CNS, in the experiment with TK-10 renal, in the experiment on CCRF-CEM leukemia, in the experiment with SNB-75 CNS and in the experiment with SF-268 CNS was greater than 100 µM in each case.

`CC1(C)CCCC2(C)[C@@H]1CC[C@]13C[C@](C)(CC[C@@H]21)[C@@H]3CO` (some centres undefined): the TGI in the experiment on MOLT-4 leukemia, in the experiment with IGROV1 ovarian, in the experiment with NCI-H226 lung, in the experiment on SK-MEL-28 melanoma, in the experiment with UACC-62 melanoma and in the experiment on COLO 205 colon was greater than 100 µM in each case. The TGI with NCI-H460 lung, with RPMI-8226 leukemia, in the experiment on HOP-92 NSCLC, in the experiment with SN12C renal, in the experiment on OVCAR-4 ovarian and in the experiment on SNB-19 CNS was greater than 100 µM throughout. Moreover, the TGI in the experiment on TK-10 renal, with CCRF-CEM leukemia, with SNB-75 CNS and in the experiment with SF-268 CNS was greater than 100 µM each time.

`C=C1CC2(C)CCC(OC(=O)C3(C)OC3C)C(C)(OC(C)=O)C2CC1=C(C)C` (centres undefined): the TGI with MOLT-4 leukemia, with IGROV1 ovarian, in the experiment with SK-MEL-28 melanoma, in the experiment with UACC-62 melanoma, in the experiment with COLO 205 colon and with NCI-H460 lung was greater than 100 µM in each case. In addition, the TGI in the experiment with NCI/ADR-RES ovarian, in the experiment with RPMI-8226 leukemia, in the experiment on HOP-92 NSCLC, in the experiment on SN12C renal, in the experiment on OVCAR-4 ovarian and with A498 renal was greater than 100 µM in each case. Also, the TGI in the experiment with SNB-19 CNS, with TK-10 renal, in the experiment with CCRF-CEM leukemia, with SNB-75 CNS and with SF-268 CNS was greater than 100 µM in each case.

Consider `CC12CCC3C(CCC4(O)C=CCCC34C=O)C1(O)CC(O)C2c1ccc(=O)oc1` (centres undefined), for which the TGI with MOLT-4 leukemia was 0.394 µM; in the experiment on IGROV1 ovarian it was 0.35 µM; with NCI-H226 lung, 0.369 µM; in the experiment on SK-MEL-28 melanoma it was 0.799 µM; in the experiment on UACC-62 melanoma it was 0.145 µM; with COLO 205 colon it was 0.381 µM. Besides, the TGI in the experiment on NCI-H460 lung was 0.0716 µM; with NCI/ADR-RES ovarian, 0.282 µM; in the experiment on RPMI-8226 leukemia, 0.839 µM; in the experiment on HOP-92 NSCLC, 0.267 µM; in the experiment on SN12C renal it was 0.199 µM; in the experiment on OVCAR-4 ovarian, 0.102 µM. For the same compound, the TGI worked out at 0.253 µM in the experiment with A498 renal; 0.527 µM in the experiment with SNB-19 CNS; 10.1 µM in the experiment with CCRF-CEM leukemia; 0.246 µM with SNB-75 CNS; 0.0754 µM in the experiment on SF-268 CNS.

Take `COc1cc(CN(C)N2C(=O)c3cccc4cc([N+](=O)[O-])cc(c34)C2=O)cc(OC)c1OC`: the TGI in the experiment on MOLT-4 leukemia, with IGROV1 ovarian, in the experiment on NCI-H226 lung, in the experiment with SK-MEL-28 melanoma, with UACC-62 melanoma and in the experiment with COLO 205 colon was greater than 100 µM each time. Moreover, the TGI in the experiment with NCI-H460 lung, with NCI/ADR-RES ovarian, in the experiment on RPMI-8226 leukemia, in the experiment on HOP-92 NSCLC, in the experiment on SN12C renal and in the experiment on OVCAR-4 ovarian was greater than 100 µM in each case. Also, the TGI in the experiment with A498 renal was greater than 100 µM; in the experiment with SNB-19 CNS, greater than 100 µM; in the experiment on CCRF-CEM leukemia, greater than 100 µM; in the experiment on SNB-75 CNS it was 60.1 µM.

Values taken from PubChem BioAssay (NCI).
